Measurements: patent publication US10925974B2, “Adipose tissue-targeting polypeptide-verbascoside-nanogold particle derivative, preparation method and application thereof” (Affiliated Stomatological Hospital of Nanjing Medical …, priority 2018, dated 2021)
Marks after values point to notes of the source that are not given here. Ends that are not written are not given here.

Key:
[1] = test system: visceral fat and subcutaneous fat of mice; experiment: Storage of visceral fat and subcutaneous fat of mice provided with high fat feed; assay type: in vivo
Method: 1) Providing an intraperitoneal administration to the high-fat-fed obese mice for 12 weeks according to the experimental procedure of Embodiment 3;
2) Fasting the mice of each group for 12 hours, and then anesthetizing with 3% pentobarbital sodium having a concentration of 45 mg/kg via intraperitoneal injection, and accurately weighing the mice;
3) Disinfecting routinely and performing laparotomy, rapidly extracting and weighing the adipose tissue around the kidney, adipose tissue around the mesentery, adipose tissue around the epididymis, and abdominal subcutaneous adipose tissue to obtain wet weights thereof (the abdominal subcutaneous adipose tissue range: abdomen below the rib arch and above the groin, both sides are bounded by the midaxillary line);
4) Calculating according to the following formula: wet weight of the abdominal adipose; total weight of the fat pad (g)=adipose tissue around the kidney+adipose tissue around the epididymis; body fat content=the total weight of the fat pad (g)/the total body weight of mice (g);

[2] = Inhibition of weight gain of mice fed with high-fat feed; assay type: in vivo
Source text: Experimental Animals: 3-4 weeks old male mice and feed provided by the Laboratory Animal Center of Nanjing Medical University, license No.: SCXK (Su) 2011-0003. The animals were randomly caged, with unlimited drink and feed. Experimental drugs: polypeptide-verbascoside-nanogold particle derivative (adipose tissue-targeting), polypeptide-verbascoside derivative, polypeptide-nanogold derivative, and verbascoside-nanogold derivative as experimental groups, and physiological saline for negative control. 2) Raising 60 male mice of 6 weeks old in the clean environment of Experimental Animal Center of Nanjing Medical University, at a temperature of (21±2) ° C., a humidity of (35±2) %, an intermittent illumination for 12 hours, with unlimited drink and feed; wherein the drinking water is distilled water prepared by the experimental animal center; 3) After 2-3 days of adaptive feeding, randomly selecting 10 mice as a blank control group provided with regular feed, while providing the remaining 50 rice with high fat feed (cholesterol 1 wt. %, lard 20 wt. %, bile salt 0.2 wt. %, and regular feed 78.8 wt. %); measuring the body weight of the mice in the two groups every 2 weeks; analyzing the obtained body weight data with statistical methods, and the results are shown in FIG. 3, wherein *P<0.05, **P<0.01, and ***P<0.001 indicate body weight data of the experimental group compared with those of the blank control group fed with regular feed; 4) Randomly dividing the obese mice fed with high-fat feed into several groups, with each group of 10 mice; injecting (exemplified by intraperitoneal injection) physiological saline (0.03 mL of physiological saline per 30 g body weight), polypeptide-verbascoside derivative (15 mg of derivative per kg body weight, dissolved in DMSO), polypeptide-nanogold derivative (15 mg of derivative per kg body weight, dissolved in DMSO), verbascoside-nanogold derivative (15 mg of derivative per kg body weight, dissolved in DMSO), and polypeptide-verbascoside-nanogold particle derivative (15 mg of derivative per kg body weight, dissolved in DMSO) at 9:30 am every day, respectively.

[3] = high fat feed mice, 15 mg/kg i.p. daily for 12 weeks, wet weight

polypeptide-verbascoside: ester of adipose tissue-targeting polypeptide CKGGRAKDC (C-terminal acyl chloride) with verbascoside sodium phenolate, per Embodiment 1 (not fully specified (C-terminus); cysteine pairing not given here)
Body weight ([1]; Table 3, high fat feed mice, 12 weeks, after 12 h fasting): 35.46 ± 1.57 g | Body weight ([1]; Table 4, high fat feed mice, 12 weeks): 35.26 ± 1.77 g | SF-FAT ([1]; abdominal subcutaneous fat, high fat feed mice, 12 weeks): 0.79 ± 0.12 g | Total weight of the fat pad ([1]; adipose tissues around kidney + around epididymis, high fat feed mice, 12 weeks): 2.27 ± 0.14 g | wet weight of the visceral adipose tissues of mice ([1]; after treatment, compared with the model control group (#p<0.05)): significantly reduced | Total weight of visceral adipose tissues ([1]; high fat feed mice, 15 mg/kg i.p. daily for 12 weeks, Table 2): 5.72 ± 0.17 g | Weight of visceral adipose tissues: Around epididymis [1, 3]: 1.21 ± 0.12 g | Weight of visceral adipose tissues: Around kidney [1, 3]: 0.61 ± 0.17 g | Weight of visceral adipose tissues: Around omentum and mesentery [1, 3]: 0.32 ± 0.05 g | SF-FAT/body weight ([1]; high fat feed mice, 12 weeks): 2.27 ± 0.23 | VF-FAT/SF-FAT ([1]; high fat feed mice, 12 weeks): 2.63 ± 0.29 | Body fat index ([1]; total weight of the fat pad / total body weight, high fat feed mice, 12 weeks): 6.13 ± 0.41 % | VF-FAT ([1]; visceral fat, Table 4, high fat feed mice, 12 weeks): 5.78 ± 0.17 g | Weight 6 weeks after administration ([2]; high fat feed mice, 15 mg/kg intraperitoneal injection every day, 6 weeks, n=10): 30.6 ± 0.3 g | Weight 12 weeks after administration ([2]; high fat feed mice, 15 mg/kg intraperitoneal injection every day, 12 weeks, n=10): 35.5 ± 1.6 g | Initial Weight ([2]; high fat feed obese mice, before administration (baseline), n=10): 29.3 ± 0.5** g | weight gains of mice ([2]; treatment for 6 weeks, compared with the model control group (#p<0.05)): significantly inhibited
